Measured values: patent US11401278B2, “Macrocyclic indole derivatives” (The Broad Institute, Inc., priority 2017, dated 2022)
Where “and” joins values, the source holds several entries; their conditions need not be identical. Identical values can stand only once. Counter-ions that a name gives are not always drawn. Like-named read-outs stand apart in the source and are kept apart here.

How the values were obtained:
SUDHL10 [1] = test: Induction of caspase-3/7 activity (Assay 4), SUDHL10; format: cell-based; details: caspase-3/7 induction, median
In short: (§1)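 DLBCL cells were exposed to compounds for 3 hours at 37 °C, then caspase-3/7 activation was read with Caspase-Glo 3/7 reagent. After subtracting medium-only background, EC50s were derived with fixed C0=1 and the reference compound's maximal induction as plateau.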

SUDHL5 [2] = test: Antiproliferation assay (Assay 7), SUDHL5; format: cell-based; details: CellTiter-Glo, median, read-out: Antiproli SUDHL5 [M] (median) IC50
In short: (§2)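 Plate cells in treatment and day 0 reference plates; read day 0 plate with CellTiter-Glo after 10 min; incubate treated plates 72 h at 37° C; read them identically.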

AMO-1 = test: Antiproliferation assay (Assay 7), AMO-1; format: cell-based; details: CellTiter-Glo, several values per example, read-out: Antiproli AMO-1 [M] IC50
In short: as §2

SUDHL5 [3] = test: Induction of cytotoxicity (Assay 6), SUDHL5; details: read-out: Cytotox SUDHL5 [M] (median) IC50, CellTiter-Glo, 5 hours, SUDHL5
Protocol: Assay 6 Induction of Cytotoxicity Upon Treatment of Cells with Selected Compounds
Therefore, cytotoxicity assays were run in parallel in SUDHL5 and SUDHL10 cells.
The different cell lines were plated in culture medium (RPMI 1640 [GIBCO #22400-089] supplemented with 10% Fetal Bovine Serum) at a density of 3,300 cells in 30 μl/well in a sterile, solid black, flat bottom, polystyrene, TC-treated 384-well microplate (Corning #3571) using Multidrop Combi Reagent Dispenser. As a control, medium without cells was also added to the plate. Cells were incubated in a humidified incubator at 37° C. overnight. On the next day, the cells were treated with compounds (stock solution, 10 mM in DMSO) using the HP D300 Digital Dispenser in a concentration range of 3.3×10e-5 M (33 μM) to 5×10e-9 M (5 nM) in a single-dot curve with at least 16 dilutions and a DMSO concentration of 0.33%. Rim wells were excluded. The cells were incubated for 5 hours in a humidified incubator at 37° C. After this incubation, 30 μl of CellTiter-Glo® Luminescent Cell Viability reagent (Promega, G7573) was added to each well using the Multidrop Combi Reagent Dispenser, followed by 15 minutes incubation on a shaker at room temperature. Finally, luminescence was read at 0.1 ms, with a gain of 3000 using the PHERAstar FS microplate reader (BMG Labtech).

SUDHL10 [4] = test: Induction of cytotoxicity (Assay 6), SUDHL10; details: read-out: Cytotox SUDHL10 [M] (median) IC50, CellTiter-Glo, 5 hours, SUDHL10
BCL-2 = BCL-2 (Homo sapiens (Human), UniProt P10415); test: Protein-protein interaction assay BCL-2/Bad BH3 peptide (BCL-2 assay, TR-FRET); format: binding; details: His-BCL-2 / Bad BH3 peptide, median
Chain of BCL-2 (P10415 other isoform, or with tags, fused parts or gaps): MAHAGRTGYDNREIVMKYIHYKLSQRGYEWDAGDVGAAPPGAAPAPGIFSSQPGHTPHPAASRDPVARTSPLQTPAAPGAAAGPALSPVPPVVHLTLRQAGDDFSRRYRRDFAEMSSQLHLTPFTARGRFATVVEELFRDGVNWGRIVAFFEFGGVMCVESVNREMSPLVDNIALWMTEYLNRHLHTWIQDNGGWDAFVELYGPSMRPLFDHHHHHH
In short: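 His-BCL-2 (1-211, E. coli) at 1 nM preincubated 10 min at 22 °C with compound (11 concentrations, 0.1 nM-20 μM, duplicates), then 1 nM biotinylated Bad BH3 peptide added. After 1 h at 22 °C plus overnight at 4 °C, TR-FRET 665/620 ratio normalised to DMSO and no-BCL-2 controls, IC50 from 4-parameter fit.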

SUDHL5 [5] = test: Induction of caspase-3/7 activity (Assay 4), SUDHL5; format: cell-based; details: caspase-3/7 induction, median
In short: as §1

SMILES	EC50 (SUDHL10 [1]; Homo sapiens, SU-DHL10, 3 h)	IC50 (SUDHL5 [2]; Homo sapiens, SU-DHL-5, 72 h)	IC50 (BCL-2)	EC50 (SUDHL5 [5]; Homo sapiens, SU-DHL-5, 3 h)	EC50 (SUDHL10 [1]; 3 hours)	IC50 (SUDHL5 [2]; 72 hours)	EC50 (SUDHL5 [5]; 3 hours)	IC50 (AMO-1; Homo sapiens, AMO1, 72 h)	IC50 (SUDHL5 [3]; Homo sapiens, SU-DHL-5, 5 h)	IC50 (SUDHL10 [4]; Homo sapiens, SU-DHL10, 5 h)	IC50 (AMO-1; 72 hours)	IC50 (SUDHL5 [3])	IC50 (SUDHL10 [4])
CCc1c2c(nn1C)C(CCC1CCOCC1)N(C)S(=O)(=O)CCCn1c(C(=O)O)c(CCCOc3cccc4cc(F)ccc34)c3ccc(Cl)c-2c31 (racemic) [Example 59, (rac)-4-chloro-3-ethyl-7-{3-[(6-fluoro-1-naphthyl)oxy]propyl}-2,14-dimethyl-15-[2-(tetrahydro-2H-pyran-4-yl)ethyl]-11,12,14,15-tetrahydro-2H,10H-pyrazolo[3′,4′:4,5][1,2,8]thiadiazacycloundecino[6,7,8-hi]indole-8-carboxylic acid 13,13-dioxide (Racemate 2)]			17 µM		0.078 µM	5.6e-08 M	0.037 µM				2.1e-07 M	5.9e-08 M	1e-07 M
CCc1c2c(nn1C)CN(CCCN1CCCC1)S(=O)(=O)CCCn1c(C(=O)O)c(CCCOc3cccc4ccccc34)c3cccc-2c31 (racemic) [Example 16, (rac)-12-Ethyl-11-methyl-1-(3-(naphthalen-1-yloxy)propyl)-8-(3-(pyrrolidin-1-yl)propyl)-5,6,9,11-tetrahydro-4H,8H-pyrazolo[3′,4′:4,5][1]thia[2,8]diazacycloundecino[6,7,8-hi]indole-2-carboxylic acid 7,7-dioxide]	> 33 µM	2.2e-05 M	> 20 µM	32 µM				> 3.3e-05 M	3.2e-05 M	> 3.3e-05 M			
Cc1c2c(nn1C)CN(C1CC1)S(=O)(=O)CCCn1c(C(=O)O)c(CCCOc3cccc4cc(F)ccc34)c3ccc(Cl)c-2c31 (racemic) [Example 41, (rac)-4-chloro-14-cyclopropyl-7-{3-[(6-fluoro-1-naphthyl)oxy]propyl}-2,3-dimethyl-11,12,14,15-tetrahydro-2H,10H-pyrazolo[3′,4′:4,5][1,2,8]thiadiazacycloundecino[6,7,8-hi]indole-8-carboxylic acid 13,13-dioxide]			19 µM		1.6 µM	1.2e-06 M	0.82 µM				8e-07 M	9.7e-07 M	1.7e-06 M
CCc1c2c(nn1C)CN(CC)S(=O)(=O)CCCn1c(C(=O)O)c(CCCOc3cccc4cc(F)ccc34)c3ccc(Cl)c-2c31 (single isomer, unassigned; enantiomer 1) [Example 57, (+)-4-chloro-3,14-diethyl-7-{3-[(6-fluoronaphthalen-1-yl)oxy]propyl}-2-methyl-13,13-dioxo-10,11,12,13,14,15-hexahydro-2H-13lambda^6-pyrazolo[3′,4′:4,5][1,2,8]thiadiazacycloundecino[6,7,8-hi]indole-8-carboxylic acid N-ethylethanamine Salt (Enantiomer 1)]			12 µM		0.11 µM	5.8e-08 M	0.12 µM				1.6e-07 M and 1.3e-07 M	1.1e-07 M	1.4e-07 M
Cc1c2c(nn1C)CN(C1CC1)S(=O)(=O)CCCn1c(C(=O)O)c(CCCOc3cccc4ccccc34)c3ccc(Cl)c-2c31 [Example 40, (rac)-4-chloro-14-cyclopropyl-2,3-dimethyl-7-[3-(1-naphthyloxy)propyl]-11,12,14,15-tetrahydro-2H,10H-pyrazolo[3′,4′:4,5][1,2,8]thiadiazacycloundecino[6,7,8-hi]indole-8-carboxylic acid 13,13-dioxide]			> 20 µM		3.3 µM	2.6e-06 M	1.9 µM				4.9e-06 M	2e-06 M	3.9e-06 M
Cc1c2c(nn1C)CN(C1CC1)S(=O)(=O)CCCn1c(C(=O)O)c(CCCOc3cccc4cc(F)ccc34)c3ccc(Cl)c-2c31 (single isomer, unassigned; enantiomer 2) [Example 43, (+)-4-chloro-14-cyclopropyl-7-{3-[(6-fluoro-1-naphthyl)oxy]propyl}-2,3-dimethyl-11,12,14,15-tetrahydro-2H,10H-pyrazolo[3′,4′:4,5][1,2,8]thiadiazacycloundecino[6,7,8-hi]indole-8-carboxylic acid 13,13-dioxide N-diethylamine salt (Enantiomer 2)]			> 20 µM		9.4 µM	7e-06 M	6.1 µM				1.1e-05 M	9.6e-06 M	1.3e-05 M

More lines, main results first:

EC50 (SUDHL10 [1]; Homo sapiens, SU-DHL10, 3 h)	IC50 (SUDHL5 [2]; Homo sapiens, SU-DHL-5, 72 h)	IC50 (BCL-2)	EC50 (SUDHL5 [5]; Homo sapiens, SU-DHL-5, 3 h)	EC50 (SUDHL10 [1]; 3 hours)	IC50 (SUDHL5 [2]; 72 hours)	EC50 (SUDHL5 [5]; 3 hours)	SMILES	IC50 (AMO-1; Homo sapiens, AMO1, 72 h)	IC50 (SUDHL5 [3]; Homo sapiens, SU-DHL-5, 5 h)	IC50 (SUDHL10 [4]; Homo sapiens, SU-DHL10, 5 h)	IC50 (AMO-1; 72 hours)	IC50 (SUDHL5 [3])	IC50 (SUDHL10 [4])
8.4 µM	3.7e-06 M	> 20 µM	3.8 µM				CCc1c2c(nn1C)C(C)N(C)S(=O)(=O)CCCn1c(C(=O)O)c(CCCOc3cccc4ccccc34)c3cccc-2c31 (racemic) [Example 18, 12-Ethyl-8,9,11-trimethyl-1-(3-(naphthalen-1-yloxy)propyl)-5,6,9,11-tetrahydro-4H,8H-pyrazolo[3′,4′:4,5][1]thia[2,8]diazacycloundecino[6,7,8-hi]indole-2-carboxylic acid 7,7-dioxide (Mixture of Stereoisomers)]	9.6e-06 M	3.5e-06 M	9.2e-06 M			
		14 µM		6.8 µM	3.7e-06 M	4.1 µM	CCc1c2c(nn1C)C(CCC1CCOCC1)N(C)S(=O)(=O)CCCn1c(C(=O)O)c(CCCOc3cccc4cc(F)ccc34)c3ccc(Cl)c-2c31 (single isomer, unassigned; enantiomer 2) [Example 62, (−)-4-chloro-3-ethyl-7-{3-[(6-fluoronaphthalen-1-yl)oxy]propyl}-2,14-dimethyl-15-[2-(oxan-4-yl)ethyl]-13,13-dioxo-10,11,12,13,14,15-hexahydro-2H-13lambda^6-pyrazolo[3′,4′:4,5][1,2,8]thiadiazacycloundecino[6,7,8-hi]indole-8-carboxylic acid (Enantiomer 2)]				3.8e-06 M	5.3e-06 M	9.7e-06 M
2.3 µM	1.2e-06 M	> 20 µM	1.1 µM				CCc1c2c(nn1C)CN(C)S(=O)(=O)CCCn1c(C(=O)O)c(CCCOc3ccc(F)c4ccccc34)c3ccc(Cl)c-2c31 [Example 24, (rac)-13-Chloro-12-ethyl-1-(34(4-fluoronaphthalen-1-yl)oxy)propyl)-8,11-dimethyl-4,5,6,8,9,11-hexahydropyrazolo[3′,4′:4,5][1,2,8]thiadiazacycloundecino[6,7,8-hi]indole-2-carboxylic acid 7,7-dioxide]	4.3e-06 M	1.3e-06 M	2.4e-06 M			
		> 20 µM		1.6 µM	1.4e-06 M	1.2 µM	CCc1c2c(nn1C)C(CCC1CCOCC1)N(C)S(=O)(=O)CCCn1c(C(=O)O)c(CCCOc3cccc4cc(F)ccc34)c3ccc(Cl)c-2c31 (single isomer, unassigned; enantiomer 4) [Example 64, (−)-4-chloro-3-ethyl-7-{3-[(6-fluoronaphthalen-1-yl)oxy]propyl}-2,14-dimethyl-15-[2-(oxan-4-yl)ethyl]-13,13-dioxo-10,11,12,13,14,15-hexahydro-2H-13lambda^6-pyrazolo[3′,4′:4,5][1,2,8]thiadiazacycloundecino[6,7,8-hi]indole-8-carboxylic acid (Enantiomer 4)]				1e-06 M	1.2e-06 M	2.9e-06 M
16 µM	4.4e-06 M	> 20 µM	10 µM				CCc1c2c(nn1C)CN(CCCN1CCCC1=O)S(=O)(=O)CCCn1c(C(=O)O)c(CCCOc3cccc4ccccc34)c3cccc-2c31 (racemic) [Example 13, (rac)-12-Ethyl-11-methyl-1-(3-(naphthalen-1-yloxy)propyl)-8-(3-(2-oxopyrrolidin-1-yl)propyl)-5,6,9,11-tetrahydro-4H,8H-pyrazolo[3′,4′:4,5][1]thia[2,8]diazacycloundecino[6,7,8-hi]indole-2-carboxylic acid 7,7-dioxide]	> 3.3e-05 M	8.2e-06 M	1.7e-05 M			
		18 µM		0.2 µM	1.4e-07 M	0.085 µM	CCc1c2c(nn1C)CN(C)S(=O)(=O)CCCn1c(C(=O)O)c(CCCOc3cccc4cc(F)ccc34)c3ccc(Cl)c-2c31 (single isomer, unassigned; enantiomer 1) [Example 36, (+)-4-chloro-3-ethyl-7-{3-[(6-fluoronaphthalen-1-yl)oxy]propyl}-2,14-dimethyl-13,13-dioxo-10,11,12,13,14,15-hexahydro-2H-13lambda^6-pyrazolo[3′,4′:4,5][1,2,8]thiadiazacycloundecino-[6,7,8-hi]indole-8-carboxylic acid (Enantiomer 1)]				4.5e-07 M and 5.3e-07 M	1.6e-07 M	2.4e-07 M
